Results reported in PubChem BioAssay AID1347040 (Sanford-Burnham Center for Chemical Genomics, 2019).
Active and inactive are the calls of the source.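 How the source made its calls: active means IC50 at or below 20 µM (some results past the limit were not filed as active); inactive means the rest.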

Target: Fatty acid synthase (Homo sapiens) (UniProt P49327)
Assay: potency against FAS-TE enzyme – biochemical, fluorescence intensity, OMFH substrate, dose response (AID 1347040)
Details: recombinant FAS-TE, OMFH fluorogenic substrate

Chain of Fatty acid synthase (Homo sapiens) (P49327 whole entry, looked up): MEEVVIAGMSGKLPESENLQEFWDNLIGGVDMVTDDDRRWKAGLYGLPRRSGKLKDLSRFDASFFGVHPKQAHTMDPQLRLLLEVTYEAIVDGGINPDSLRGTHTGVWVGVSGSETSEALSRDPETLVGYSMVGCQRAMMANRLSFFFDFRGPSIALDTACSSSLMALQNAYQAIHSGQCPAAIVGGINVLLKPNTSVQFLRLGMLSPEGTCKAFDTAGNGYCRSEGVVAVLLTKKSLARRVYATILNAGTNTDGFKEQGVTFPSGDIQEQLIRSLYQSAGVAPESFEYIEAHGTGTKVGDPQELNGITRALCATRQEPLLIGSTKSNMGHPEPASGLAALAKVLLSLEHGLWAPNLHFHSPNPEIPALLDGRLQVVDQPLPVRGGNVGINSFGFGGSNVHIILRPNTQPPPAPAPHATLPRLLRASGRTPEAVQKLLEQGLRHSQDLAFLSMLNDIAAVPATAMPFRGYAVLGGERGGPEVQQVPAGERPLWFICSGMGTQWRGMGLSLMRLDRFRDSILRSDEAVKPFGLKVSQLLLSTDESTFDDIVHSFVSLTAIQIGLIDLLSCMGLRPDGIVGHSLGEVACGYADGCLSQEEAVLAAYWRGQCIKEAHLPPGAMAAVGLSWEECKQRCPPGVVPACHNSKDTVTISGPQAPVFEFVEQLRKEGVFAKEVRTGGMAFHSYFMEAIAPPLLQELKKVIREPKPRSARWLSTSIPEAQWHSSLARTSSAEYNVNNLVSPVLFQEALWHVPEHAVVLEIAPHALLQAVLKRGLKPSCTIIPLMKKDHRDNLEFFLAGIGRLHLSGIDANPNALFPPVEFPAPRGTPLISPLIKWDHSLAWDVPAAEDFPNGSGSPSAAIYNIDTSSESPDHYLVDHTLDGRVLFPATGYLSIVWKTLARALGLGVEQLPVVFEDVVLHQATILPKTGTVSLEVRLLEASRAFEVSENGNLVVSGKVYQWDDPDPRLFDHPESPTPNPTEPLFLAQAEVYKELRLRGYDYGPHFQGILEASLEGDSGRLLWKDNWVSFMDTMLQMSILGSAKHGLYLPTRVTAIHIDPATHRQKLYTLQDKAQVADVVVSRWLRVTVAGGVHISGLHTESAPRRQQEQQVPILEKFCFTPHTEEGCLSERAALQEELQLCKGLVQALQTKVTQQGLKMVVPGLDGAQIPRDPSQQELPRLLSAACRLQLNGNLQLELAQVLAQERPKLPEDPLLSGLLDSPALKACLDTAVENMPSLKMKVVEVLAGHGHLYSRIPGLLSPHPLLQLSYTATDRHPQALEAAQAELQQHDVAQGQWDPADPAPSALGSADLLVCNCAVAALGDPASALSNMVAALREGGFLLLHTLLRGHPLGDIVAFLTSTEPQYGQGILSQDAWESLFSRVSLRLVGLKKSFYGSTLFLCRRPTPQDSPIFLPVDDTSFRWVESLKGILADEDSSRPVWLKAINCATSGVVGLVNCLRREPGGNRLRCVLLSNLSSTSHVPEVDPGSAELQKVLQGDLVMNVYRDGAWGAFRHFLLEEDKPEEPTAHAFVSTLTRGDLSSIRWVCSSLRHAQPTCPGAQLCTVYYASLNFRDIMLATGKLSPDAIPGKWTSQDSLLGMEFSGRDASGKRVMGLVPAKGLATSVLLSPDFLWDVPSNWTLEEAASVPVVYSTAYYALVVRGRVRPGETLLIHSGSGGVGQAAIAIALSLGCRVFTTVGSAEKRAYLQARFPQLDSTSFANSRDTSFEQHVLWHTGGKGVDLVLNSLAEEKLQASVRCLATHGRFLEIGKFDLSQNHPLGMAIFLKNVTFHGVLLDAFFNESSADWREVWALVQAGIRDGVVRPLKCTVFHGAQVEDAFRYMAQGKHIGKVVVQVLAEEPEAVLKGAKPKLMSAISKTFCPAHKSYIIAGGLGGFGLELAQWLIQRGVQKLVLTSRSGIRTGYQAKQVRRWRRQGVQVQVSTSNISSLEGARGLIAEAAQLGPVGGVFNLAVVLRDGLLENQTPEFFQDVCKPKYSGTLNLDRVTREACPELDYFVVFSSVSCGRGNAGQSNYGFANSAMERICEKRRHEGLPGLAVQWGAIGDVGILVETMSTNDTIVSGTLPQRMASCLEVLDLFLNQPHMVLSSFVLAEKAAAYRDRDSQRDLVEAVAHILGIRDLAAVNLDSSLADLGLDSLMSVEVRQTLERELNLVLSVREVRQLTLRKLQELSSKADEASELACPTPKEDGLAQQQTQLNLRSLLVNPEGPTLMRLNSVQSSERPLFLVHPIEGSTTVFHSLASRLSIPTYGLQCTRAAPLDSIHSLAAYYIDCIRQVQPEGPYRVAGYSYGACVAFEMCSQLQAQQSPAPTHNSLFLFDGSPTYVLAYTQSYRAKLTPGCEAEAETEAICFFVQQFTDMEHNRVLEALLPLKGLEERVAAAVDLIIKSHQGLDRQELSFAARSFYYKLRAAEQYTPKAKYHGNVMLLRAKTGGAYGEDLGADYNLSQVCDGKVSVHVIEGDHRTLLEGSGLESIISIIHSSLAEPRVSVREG

| IC50 | Structure (SMILES) |
| --- | --- |
| 10 µM | CCN(CC)S(=O)(=O)c1ccc(-c2csc(-c3ccc(Cl)cc3)n2)cc1 |
| > 30 µM (inactive) | O=C(Cc1ccc(S(=O)(=O)N2CCOCC2)s1)NCc1ccccc1 |
| 0.918 µM | CCN(CC)S(=O)(=O)c1ccc(-c2csc(Cc3ccc(F)cc3)n2)cc1 |
| 1.17 µM | CCN(CC)S(=O)(=O)c1ccc(-c2csc(Cc3cccc(F)c3)n2)cc1 |
| inactive | O=C(Cc1ccc(S(=O)(=O)N2CCOCC2)s1)N1CCN(S(=O)(=O)c2ccc(F)cc2)CC1 |
| 5.38 µM | CCN(CC)S(=O)(=O)c1ccc(-c2csc(Cc3ccccc3OC)n2)cc1 |
| 51.7 µM | CCc1nc(-c2ccc(S(=O)(=O)N(CC)CC)cc2)cs1 |
| 44.6 µM | O=C(Cc1ccc(S(=O)(=O)N2CCOCC2)s1)N1CCN(S(=O)(=O)c2ccccc2)CC1 |
| 8.69 µM | CCN(CC)S(=O)(=O)c1ccc(-c2csc(Cc3cccc(I)c3)n2)cc1 |
| 10 µM | CCN(CC)S(=O)(=O)c1ccc(-c2csc(-c3ccc(Br)cc3)n2)cc1 |
| 4.2 µM | CCN(CC)S(=O)(=O)c1ccc(-c2csc(C(C)C)n2)cc1 |
| > 30 µM (inactive) | CS(=O)(=O)N1CCN(C(=O)Cc2ccc(S(=O)(=O)N3CCOCC3)s2)CC1 |
| > 30 µM (inactive) | CC(C)S(=O)(=O)N1CCN(C(=O)Cc2ccc(S(=O)(=O)N3CCOCC3)s2)CC1 |
| 5.04 µM | CCN(CC)S(=O)(=O)c1ccc(-c2csc(-c3cccc(Br)c3)n2)cc1 |
| 3.26 µM | CCN(CC)S(=O)(=O)c1ccc(-c2csc(Cc3cccc(C(F)(F)F)c3)n2)cc1 |
| 0.631 µM | CCN(CC)S(=O)(=O)c1ccc(-c2csc(Cc3ccccc3F)n2)cc1 |
| 14.3 µM | CC(C)(C)c1ccc(CNC(=O)Cc2ccc(S(=O)(=O)N3CCOCC3)s2)cc1 |
| 33.2 µM | Cc1cc(C)c(S(=O)(=O)N2CCN(C(=O)Cc3ccc(S(=O)(=O)N4CCOCC4)s3)CC2)c(C)c1 |
| 0.5 µM | CCN(CC)S(=O)(=O)c1ccc(-c2csc(-c3ccc(F)cc3)n2)cc1 |
| 5.8 µM | CC(C)c1nc(-c2ccc(S(=O)(=O)N3CCOCC3)cc2)cs1 |
| > 30 µM (inactive) | O=C(Cc1ccc(S(=O)(=O)N2CCOCC2)s1)N1CCN(S(=O)(=O)Cc2ccccc2)CC1 |
| 5.28 µM | CCN(CC)S(=O)(=O)c1ccc(-c2csc(C(c3ccccc3)c3ccccc3)n2)cc1 |
| 2.6 µM | CCN(CC)S(=O)(=O)c1ccc(-c2csc(C(C)(C)C)n2)cc1 |
| 17.2 µM | CCN(CC)S(=O)(=O)c1ccc(-c2csc(-c3ccc(Br)cc3C)n2)cc1 |
| 0.291 µM | O=S(=O)(c1ccc(-c2csc(-c3ccc(F)cc3)n2)cc1)N1CCOCC1 |
